Experiment [1] concerns human small lung cancer cell line H2171. Briefly: Cell Viability Assay (ATPlite). Format: cell-based. Particulars: NCI-H2171, 72 h, H2171 cells, incubated for three days, ATPlite readout. The protocol:
Compounds of the invention were assayed for cell viability using the human small lung cancer cell line H2171 as described in the following protocol. Cells were counted and adjusted to 20,000 cells/mL. Using a Biotek EL406, 50 μL of cells in media were distributed into 384 well white plates from Thermo. Immediately after plating, compound in DMSO was distributed to plates. Compounds were added to plates using a 50 nL 384 well pin transfer manifold on a Janus workstation. Stocks were arrayed in 10 point dose response in DMSO stock in 384 well Greiner compound plates. After the addition of compounds, plates were incubated for three days in a 37° C. incubator. Cell viability was read out using ATPlite from Perkin Elmer. Lyophilized powder was resuspended in lysis buffer and diluted 1:2 with deionized water. 25 μL of this solution was added to each well using the Biotek liquid handler. Plates were incubated for 15 minutes at room temperature before signal was read on an Envision Plate Reader. The data from this assay are summarized in Table 3 below (H2171 activity).
Background: Cellular ATP, detected with luciferase, serves as a proxy for viable cell number.

Experiment [2] concerns the target T1, c-Myc/Max/Ebox DNA (Homo sapiens, UniProt P01106).
T1 construct: his6 (cleaved yes)
Briefly: c-Myc/Max/Ebox DNA AlphaScreen Assay. Format: binding. Particulars: free c-Myc 20 nM, his6-Max 5 nM, biotinylated Ebox oligo 10 nM, 2 hour incubation. The gist of the method: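 Tag-free c-Myc (20 nM final) and biotinylated Ebox DNA (10 nM final) met compound first, then his6-Max was added; 2 h incubation in pH 8.0 HEPES buffer (150 mM NaCl, BSA, Tween20, glycogen, DTT), DMSO ≤2%. Ternary complex read as AlphaScreen signal between Ni-chelate acceptor and streptavidin donor beads.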
Background: Bead proximity is the source of the signal in Alpha formats.

The record followed here is patent publication US11753418B2, “Compounds for the modulation of Myc activity” (Syros Pharmaceuticals, Inc., priority 2015, dated 2023).

Structures can show the parent of a compound that is named as a salt.

The IC50 is the concentration at which inhibition is half-maximal. The low end stands for inhibition by little substance, the high end for a need for much substance.

T1 sequence (P01106 whole entry): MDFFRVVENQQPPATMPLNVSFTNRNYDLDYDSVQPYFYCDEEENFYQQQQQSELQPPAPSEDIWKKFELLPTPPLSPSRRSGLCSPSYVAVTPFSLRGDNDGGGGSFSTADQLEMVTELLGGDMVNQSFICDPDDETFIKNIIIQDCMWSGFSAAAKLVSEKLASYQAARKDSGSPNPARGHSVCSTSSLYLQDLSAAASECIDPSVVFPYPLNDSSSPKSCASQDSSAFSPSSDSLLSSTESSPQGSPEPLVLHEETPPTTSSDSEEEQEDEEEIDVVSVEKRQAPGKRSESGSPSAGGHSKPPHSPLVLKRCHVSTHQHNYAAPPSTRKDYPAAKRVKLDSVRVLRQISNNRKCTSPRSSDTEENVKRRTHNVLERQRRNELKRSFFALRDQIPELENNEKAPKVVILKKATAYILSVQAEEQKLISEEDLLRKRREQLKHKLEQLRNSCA

Turning to `CC[C@H](C)NCCC(=O)Nc1sc2c(c1-c1nc3cnccc3s1)CCN(C(C)C)C2` [Compound 239, (S)-3-(sec-butylamino)-N-(6-isopropyl-3-(thiazolo[4,5-c]pyridin-2-yl)-4,5,6,7-tetrahydrothieno[2,3-c]pyridin-2-yl)propanamide], the IC50 in experiment [1] and in experiment [2] was less than 500 nM in each case.
`CCN1[C@H](C)Cc2c(sc(NC(C)=O)c2-c2nc3cnccc3s2)[C@H]1C` [Compound 119, N-((5R,7R)-6-ethyl-5,7-dimethyl-3-(thiazolo[4,5-c]pyridin-2-yl)-4,5,6,7-tetrahydrothieno[2,3-c]pyridin-2-yl)acetamide]: the IC50 in experiment [1] and in experiment [2] was less than 500 nM each time.
For the compound `CC(=O)Nc1sc2c(c1-c1nc3cnccc3s1)C(C)CN(C(C)C)C2` (stereo not drawn) [Compound 107, N-(6-isopropyl-4-methyl-3-(thiazolo[4,5-c]pyridin-2-yl)-4,5,6,7-tetrahydrothieno[2,3-c]pyridin-2-yl)acetamide], the IC50 in experiment [1] and in experiment [2] was 500 to 5000 nM throughout.
In the case of `CC(=O)Nc1sc2c(c1-c1nc3cccnc3s1)CCNC2` [Compound 101, N-(3-(thiazolo[5,4-b]pyridin-2-yl)-4,5,6,7-tetrahydrothieno[2,3-c]pyridin-2-yl)acetamide], the IC50 was less than 500 nM in experiment [1] and 500 to 5000 nM in experiment [2].
The like results for `CC(=O)Nc1sc2c(c1-c1nc3cnccc3s1)CCC(N)C2` (stereo not drawn) [Compound 113, N-(6-amino-3-(thiazolo[4,5-c]pyridin-2-yl)-4,5,6,7-tetrahydrobenzo[b]thiophen-2-yl)acetamide] were, in that order, less than 500 nM and 500 to 5000 nM.
The like results for `O=C(CCN1CCCC12CNC2)Nc1sc2c(c1-c1nc3cnccc3s1)CCNC2` [Compound 206] were, in that order, 500 to 5000 nM and less than 500 nM.
The like results for `O=C(CCN1CCCCC12CNC2)Nc1sc2c(c1-c1nc3cnccc3s1)CCNC2` [Compound 183] were, in that order, less than 500 nM and 500 to 5000 nM.
Take `O=C(CCN[C@H]1CC[C@H](O)C1)Nc1sc2c(c1-c1nc3cnccc3s1)CCNC2` [Compound 176]: the half-inhibitory concentration (IC50) in experiment [1] and in experiment [2] was less than 500 nM throughout.
With `CC[C@H](C)NCCC(=O)Nc1sc2c(c1-c1nc3cnccc3s1)CCNC2` [Compound 122, (S)-3-(sec-butylamino)-N-(3-(thiazolo[4,5-c]pyridin-2-yl)-4,5,6,7-tetrahydrothieno[2,3-c]pyridin-2-yl)propanamide], the 50% inhibitory concentration (IC50) in experiment [1] and in experiment [2] was less than 500 nM in each case.
On to `CC(=O)Nc1sc2c(c1-c1nc3cnccc3s1)CCNC2` [Compound 100, N-(3-(Thiazolo[4,5-c]pyridin-2-yl)-4,5,6,7-tetrahydrothieno[2,3-c]pyridin-2-yl)acetamide], for which the half-inhibitory concentration (IC50) in experiment [1] is 500 to 5000 nM; in experiment [2] it was less than 500 nM.
Take `CCC(C)NCCC(=O)[15NH]c1sc2c(c1-c1nc3cnccc3s1)CCNC2` (stereo not drawn) [Compound 251, 3-(sec-Butylamino)-N-(3-(thiazolo[4,5-c]pyridin-2-yl)-4,5,6,7-tetrahydrothieno[2,3-c]pyridin-2-yl)propan-^15N-amide]: the half-inhibitory concentration (IC50) in experiment [1] and in experiment [2] was less than 500 nM each time.
Turning to `CC(=O)Nc1sc2c(c1-c1nc3cnccc3s1)CCN(C)C2` [Compound 114, N-(6-methyl-3-(thiazolo[4,5-c]pyridin-2-yl)-4,5,6,7-tetrahydrothieno[2,3-c]pyridin-2-yl)acetamide], the IC50 in experiment [1] and in experiment [2] was 500 to 5000 nM throughout.
For `CC(=O)Nc1sc2c(c1-c1nc3cnccc3s1)C[C@@H](C)N[C@@H]2C` (single isomer, unassigned) [Compound 110], the IC50 in experiment [1] and in experiment [2] was less than 500 nM in each case.
With `O=C(CCNCCc1cccnc1)Nc1sc2c(c1-c1nc3cnccc3s1)CCNC2` [Compound 218, 3-((2-(pyridin-3-yl)ethyl)amino)-N-(3-(thiazolo[4,5-c]pyridin-2-yl)-4,5,6,7-tetrahydrothieno[2,3-c]pyridin-2-yl)propanamide], the concentration for half-maximal inhibition (IC50) in experiment [1] and in experiment [2] was less than 500 nM throughout.
Turning to `CNCCC(=O)Nc1sc2c(c1-c1nc3cnccc3s1)CCNC2` [Compound 224, 3-(Methylamino)-N-(3-(thiazolo[4,5-c]pyridin-2-yl)-4,5,6,7-tetrahydrothieno[2,3-c]pyridin-2-yl)propanamide], the half-maximal inhibitory concentration (IC50) is 500 to 5000 nM in experiment [1] and less than 500 nM in experiment [2].
The like results for `CCC(C)NCCC(=O)Nc1sc2c(c1-c1nc3cnccc3s1)CCNC2` (stereo not drawn) [Compound 103, 3-(sec-butylamino)-N-(3-(thiazolo[4,5-c]pyridin-2-yl)-4,5,6,7-tetrahydrothieno[2,3-c]pyridin-2-yl)propanamide] were, in that order, less than 500 nM and less than 500 nM.
With `COCCNCCC(=O)Nc1sc2c(c1-c1nc3c(C(F)F)nc(C)cc3s1)CCNC2` [Compound 245], the 50% inhibitory concentration (IC50) in experiment [1] and in experiment [2] was less than 500 nM each time.
As for `O=C(CCN[C@@H]1C[C@H]2CNC[C@H]2C1)Nc1sc2c(c1-c1nc3cnccc3s1)CCNC2` [Compound 153], the 50% inhibitory concentration (IC50) in experiment [1] and in experiment [2] was less than 500 nM each time.
Regarding `C[C@H]1Cc2c(sc(NC(=O)CCN[C@@H]3C[C@H]4CNC[C@H]4C3)c2-c2nc3cnccc3s2)CN1` [Compound 247, N—((S)-5-methyl-3-(thiazolo[4,5-c]pyridin-2-yl)-4,5,6,7-tetrahydrothieno[2,3-c]pyridin-2-yl)-3-(((3aR,5s,6aS)-octahydrocyclopenta[c]pyrrol-5-yl)amino)propanamide], the half-inhibitory concentration (IC50) is less than 500 nM in experiment [1] and 5000 to 25000 nM in experiment [2].
The like results for `O=C(CCN1CC(C(=O)O)C1)Nc1sc2c(c1-c1nc3cnccc3s1)CCNC2` [Compound 172] were, in that order, less than 500 nM and less than 500 nM.
The like results for `CC(=O)Nc1sc2c(c1-c1nc3cnccc3s1)C[C@H](C)N[C@H]2C` (single isomer, unassigned) [Compound 111] were, in that order, less than 500 nM and less than 500 nM.
For `Cn1cncc1CNCCC(=O)Nc1sc2c(c1-c1nc3cnccc3s1)CCNC2` [Compound 203], in that order: 500 to 5000 nM and less than 500 nM.
As for `CCN1Cc2sc(NC(C)=O)c(-c3nc4cnccc4s3)c2C[C@H]1C` [Compound 230, (R)—N-(6-ethyl-5-methyl-3-(thiazolo[4,5-c]pyridin-2-yl)-4,5,6,7-tetrahydrothieno[2,3-c]pyridin-2-yl)acetamide], the IC50 is less than 500 nM in experiment [1] and 500 to 5000 nM in experiment [2].
The like results for `CC(=O)Nc1sc2c(c1-c1nc3c(C)nc(C)cc3s1)CCNC2` [Compound 228, N-(3-(4,6-dimethylthiazolo[4,5-c]pyridin-2-yl)-4,5,6,7-tetrahydrothieno[2,3-c]pyridin-2-yl)acetamide hydrochloride] were, in that order, less than 500 nM and less than 500 nM.
Turning to `CN(C)CCC(=O)Nc1sc2c(c1-c1nc3cnccc3s1)CCNC2` [Compound 219, 3-(dimethylamino)-N-(3-(thiazolo[4,5-c]pyridin-2-yl)-4,5,6,7-tetrahydrothieno[2,3-c]pyridin-2-yl)propanamide], the half-inhibitory concentration (IC50) in experiment [1] and in experiment [2] was less than 500 nM each time.
As to `CN(CCCn1ccnc1)CCC(=O)Nc1sc2c(c1-c1nc3cnccc3s1)CCNC2` [Compound 190], the IC50 in experiment [1] and in experiment [2] was less than 500 nM in each case.
For the compound `CCN1Cc2sc(NC(C)=O)c(-c3nc4cnccc4s3)c2C[C@@H]1C` [Compound 231, (S)—N-(6-ethyl-5-methyl-3-(thiazolo[4,5-c]pyridin-2-yl)-4,5,6,7-tetrahydrothieno[2,3-c]pyridin-2-yl)acetamide], the IC50 was less than 500 nM in experiment [1] and 500 to 5000 nM in experiment [2].
